Laboratory results taken from patent publication US20220260574A1, “METHODS OF DETERMINING THERAPIES BASED ON SINGLE CELL CHARACTERIZATION OF CIRCULATING TUMOR CELLS (CTCS) IN METASTATIC DISEASE” (Epic Sciences, Inc., priority 2017, published 2022).
Read-outs that look alike come from different tables or passages of the source.

What was measured:
mCRPC patients [1] = assay: Single CTC sequencing of a 2nd line post taxane patient treated with enzalutamide; type: in vivo, human; settings: 2nd line post taxane patient with lack of clonal diversity
Source text: Phlebotomy samples were obtained at a Decision Point in management: therapy was chosen by the treating physician. Standard of care collection from 221 mCRPC patients at decision points. Baseline blood draw prior to A, E or T. Followed by PSA, time on drug, radiographic progression free (rPFS) & overall survival (OS). 9225 CTCs identified and characterized phenotypically. 741 CTCs from 31 patients were studied by whole genome CNV for clonality and gene amplifications/deletions. Patients were ranked based on how heterogeneous or diverse the cells were at each decision point. […] After a CTC is phenotypically measured, the coverslip is removed and the individual CTC is aspirated and put into an individual tube. The CTCs are amplified and prepared for sequencing (FIG. 15). Following sequencing informatics were performed to assess clonality and amplification/deletions (FIG. 15). […] Each patient sample was analyzed separately. Single CTC genomic CNV plots were curated individually versus other CTCs in patient sample. Clonality was characterized based on large genomic variations and focal amplifications or deletion of known driver alterations in at least 2 CTCs, for example, two cells from same patient with or without a loss of chromosome 5q or two clones from a patient with and without AR amplification (FIG. 16).

mCRPC patients [2] = tested on: mCRPC patients
mCRPC patients [3] = assay: Carboplatin therapy in mCRPC patients with high vs low pLST baseline CTCs (PSA response); type: in vivo, human
[4] = patients without vs with the presence of cell type K
[5] = one 8th line mCRPC patient with 4.3% baseline CTCs as high pLST
[6] = one 10th line mCRPC patient with 96% baseline CTCs as high pLST

| Structure (SMILES) | response to therapy (mCRPC patients [1]) | Time on therapy (Tx) (mCRPC patients [2]; all patients, Abi vs Enza) | overall survival (OS) (mCRPC patients [2]; all patients, Abi vs Enza) | radiographic Progression Free Survival (rPFS) (mCRPC patients [2]; all patients, Enza vs Abi, p=0.025) | HR (hazards of death, overall survival), feature Therapy (mCRPC patients [2]; multivariate cox model, =0 if Abi, =1 if Enza, p 0.4167) | HR (hazards of death, overall survival), feature Cell Type K: Therapy Interaction (mCRPC patients [2]; multivariate cox model, =0 if not K+ and Enza, =1 if K+ and Enza, p 0.0306) | hazards of death, therapy favoured in multivariate cox proportional hazards model (mCRPC patients [2]; patients without the presence of cell type K) | OS (mCRPC patients [2]; patients without the presence of cell type K, Enza vs Abi) | rPFS (mCRPC patients [2]; patients without the presence of cell type K, Enza vs Abi, p=0.006) | OS (mCRPC patients [2]; [4]) | Time on Tx (mCRPC patients [2]; [4]) | rPFS (mCRPC patients [2]; [4]) | 12 week PSA change (mCRPC patients [3]; [5]) | response to carboplatin therapy (mCRPC patients [3]; [5]) | 12 week PSA change (mCRPC patients [3]; [6]) | response to carboplatin therapy (mCRPC patients [3]; [6]) |
| --- | --- | --- | --- | --- | --- | --- | --- | --- | --- | --- | --- | --- | --- | --- | --- | --- |
| CNC(=O)c1ccc(N2C(=S)N(c3ccc(C#N)c(C(F)(F)F)c3)C(=O)C2(C)C)cc1F [enzalutamide] | responded | similar | similar | significantly better | 0.6543 | 5.2792 | more favorable | no difference | significantly better | significant improvement | significant improvement | significant improvement | – | – | – | – |
| N.N.O=C([O-])C1(C(=O)[O-])CCC1.[Pt+2] [carboplatin] | – | – | – | – | – | – | – | – | – | – | – | – | +2.1% | did not respond | −50.1% | responded |
